In paper PMC7136958, “Targeting the pregnane X receptor using microbial metabolite mimicry” (EMBO Molecular Medicine, 2020):
Where “and” joins values, the source holds several entries; their conditions need not be identical. Equal entries are not always repeated. Where two headings read alike, the source gives them in different places.

Key:
[1] = tested on: CYP1A1, CYP3A4, MDR1 mRNA in primary human hepatocytes; assay: qRT-PCR of CYP1A1, CYP3A4, MDR1 mRNA in primary human hepatocytes (four donors); conditions: for CYP1A1 (1A1) mRNA, fold to C: primary human hepatocytes, fold vs untreated (UT)
Method: (§1) Cells or primary human hepatocytes from four different donors (HEP200529, HEP220932, HEP200533, and HEP200538) were incubated for 24 h with test compounds; the vehicle was DMSO (0.1% v/v). Total RNA was isolated using TRI Reagent® (Molecular Research Center, Ohio, USA). cDNA was synthesized from 1,000 ng of total RNA using M‐MuLV Reverse Transcriptase (New England Biolabs, Ipswich, Massachusetts, USA) at 42°C for 60 min in the presence of random hexamers (New England Biolabs). Quantitative reverse transcriptase–polymerase chain reaction (qRT–PCR) was performed using LightCycler® 480 Probes Master on a LightCycler® 480 II apparatus (Roche Diagnostic Corporation).
(§2) The following protocol was used: An activation step at 95°C for 10 min was followed by 45 cycles of PCR (denaturation at 95°C for 10 s; annealing with elongation at 60°C for 30 s). The measurements were performed in triplicate. Gene expression was normalized per GAPDH as a housekeeping gene. […] Data are expressed as fold induction ± SD over the vehicle‐treated cells. The bar graph depicts one representative experiment of a series of experiments performed in three consecutive passages of cells. Differences were tested using one‐way ANOVA with Dunnett's post hoc test, and P < 0.05 was considered significant.

[2] = tested on: CYP1A1, CYP3A4, MDR1 mRNA in HepaRG cells; conditions: for 1A1 mRNA fold to C: normalised to GAPDH, fold vs UT
Method: Caco‐2 cells were purchased from ATCC, and authenticity was validated by multiplexed STR DNA (short tandem repeat deoxyribonucleic acid) profiling performed by Genetica. […] Cells were maintained at 37°C and 5% CO2 in a humidified incubator. […] Three HepaRG™‐derived cell lines, including 5F Clone control cells, and cells with targeted functional PXR and AhR gene knockouts, PXR‐KO and AhR‐KO, respectively, were purchased from Sigma (Czech Republic). Cells were handled according to the manufacturer's protocol. Human hepatocytes were purchased from Biopredic International (France) and Triangle Research Labs, LLC, Lonza (USA). Cultures were maintained in serum‐free medium at 37°C and 5% CO2 in a humidified incubator.
The measurements were performed in triplicate.

[3] = tested on: CYP1A1, CYP3A4, MDR1 mRNA in LS180 cells; assay: qRT-PCR of CYP1A1, CYP3A4, MDR1 mRNA in LS180 cells with or without (mock) transfected PXR; conditions: normalised to GAPDH, fold to UT control
Method: as §1, §2

[4] = target: T1, AhR (Homo sapiens, UniProt P35869); assay: AhR reporter assay, HepG2 cells stably expressing pCYP1A1 luciferase (AZ-AHR); assay type: cell-based; conditions: human; AZ-AHR cells, positive control, fold vs UT, concentration not given
T1 construct: endogenous in cells; host or cells: AZ-AHR (HepG2)
T1 sequence (P35869 11-848): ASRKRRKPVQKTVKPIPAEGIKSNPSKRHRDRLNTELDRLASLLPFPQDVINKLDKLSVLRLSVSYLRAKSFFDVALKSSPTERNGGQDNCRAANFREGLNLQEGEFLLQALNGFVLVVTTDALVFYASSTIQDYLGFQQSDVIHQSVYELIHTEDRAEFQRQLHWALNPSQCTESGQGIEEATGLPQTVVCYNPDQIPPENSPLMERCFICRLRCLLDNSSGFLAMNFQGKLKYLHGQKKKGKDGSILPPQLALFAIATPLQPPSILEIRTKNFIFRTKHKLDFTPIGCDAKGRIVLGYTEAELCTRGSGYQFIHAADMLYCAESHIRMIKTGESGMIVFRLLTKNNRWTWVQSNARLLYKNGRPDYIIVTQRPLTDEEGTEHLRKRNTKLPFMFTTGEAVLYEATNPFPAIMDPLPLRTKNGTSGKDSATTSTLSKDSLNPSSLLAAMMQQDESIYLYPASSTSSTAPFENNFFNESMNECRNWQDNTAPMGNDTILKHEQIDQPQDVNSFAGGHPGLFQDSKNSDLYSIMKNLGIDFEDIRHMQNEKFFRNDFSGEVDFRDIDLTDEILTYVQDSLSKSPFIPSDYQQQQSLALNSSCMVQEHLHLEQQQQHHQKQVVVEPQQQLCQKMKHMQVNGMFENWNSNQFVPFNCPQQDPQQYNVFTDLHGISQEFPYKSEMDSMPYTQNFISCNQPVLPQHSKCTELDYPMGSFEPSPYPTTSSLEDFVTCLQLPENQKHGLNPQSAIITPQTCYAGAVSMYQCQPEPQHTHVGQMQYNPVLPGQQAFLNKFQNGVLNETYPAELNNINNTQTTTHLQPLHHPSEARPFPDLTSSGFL
Method: Incubations were performed in four technical replicates.

[5] = tested on: NF-κB; assay: TNF-α-induced NF-κB reporter assay in LS174T PXR-KO cells; conditions: LS174T PXR-KO, EXP3; 10 μM + TNFα 5 ng/ml; TNFa 5 ng/ml = 100; listed as RIF
Text: In early passage PXR‐KO cells, we used PXR and NF‐κB reporter‐co‐transfected and NF‐κB reporter‐transfected PXR‐KO cell line.
CRISPR/Cas9‐mediated knockout cells were generated by Synthego Corporation (Redwood City, CA, USA). Briefly, cells were first tested negative for mycoplasma. Guide RNA was selected for high activity, specificity, and activity to create premature stop codons through frameshift mutations in the coding region via insertions and/or deletions (Indels) within exon 2 of the gene encoding human PXR (NR1I2 transcript ID ENST00000337940). […] To generate these cells, ribonucleoproteins (RNPs) containing the Cas9 protein and synthetic chemically modified sgRNA (Synthego) were electroporated into the cells using Synthego's optimized protocol. Editing efficiency is assessed upon recovery, 48 h post‐electroporation. Genomic DNA is extracted from a portion of the cells, PCR‐amplified, and sequenced using Sanger sequencing. The resulting chromatograms are processed using Synthego Inference of CRISPR Edits software (ice.synthego.com).

[6] = target: T2, hPXR-LBD (PXR.1) (Homo sapiens, UniProt O75469); assay: Isothermal titration calorimetry with His-tagged hPXR-LBD; assay type: binding
T2 construct: made in house; host or cells: E. coli BL21-Gold
T2 sequence (O75469 146-433 limits assumed): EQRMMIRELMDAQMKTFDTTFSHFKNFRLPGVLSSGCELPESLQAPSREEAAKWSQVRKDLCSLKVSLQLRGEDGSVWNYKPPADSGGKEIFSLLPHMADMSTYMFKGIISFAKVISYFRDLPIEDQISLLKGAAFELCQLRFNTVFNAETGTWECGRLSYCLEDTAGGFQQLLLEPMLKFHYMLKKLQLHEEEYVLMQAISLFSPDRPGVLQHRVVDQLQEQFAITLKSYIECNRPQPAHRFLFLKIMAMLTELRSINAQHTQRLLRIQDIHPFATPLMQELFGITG
Method: The cloning, expression, and purification of His‐tagged PXR‐LBD were performed as previously published (Wallace et al, 2013) with the following modifications: For protein expression, Luria–Bertani (LB) media were inoculated with a saturated culture of BL21‐Gold cells transformed with HIS‐LIC plasmid containing the PXR‐LBD construct. The mixture was allowed to shake at 37°C until the cells reached an OD600 ~ 0.6, and then, the temperature was reduced to 18°C, at which time IPTG was added (final concentration of 0.1 mM) to induce protein expression. For purification, the His‐tag was not removed, and the uncleaved protein was loaded onto the gel filtration column with buffer containing HEPES (4‐(2‐hydroxyethyl)‐1‐piperazineethanesulfonic acid) (25 mM, pH 7.5) and NaCl (150 mM).
Isothermal titration calorimetry (ITC) was carried out using a VP‐ITC microcalorimeter from MicroCal⁄Malvern Instruments (Northampton, MA, USA). […] In all the experiments, the ligand solution was injected in 10 μl aliquots into the calorimetric cell containing PXR‐LBD (ligand‐binding domain) at a concentration of 3–6 μM. […] The experiments were carried out at 37°C. The heat evolved upon each injection of the ligands was obtained from the integral of the calorimetric signal. The heat associated with binding to PXR‐LBD in the cell was obtained by subtracting the heat of dilution from the heat of reaction.

Clc1cc2c(cc1Cl)Oc1cc(Cl)c(Cl)cc1O2 [TCDD, 2,3,7,8‐tetrachlorodibenzo‐p‐dioxin, reference compound]
CYP1A1 mRNA induction ([1]; four donors): induced CYP1A1 mRNA in all cells
CYP1A1 mRNA fold to C ([1]; primary human hepatocytes donor Hep200538, normalised to GAPDH, fold to UT control): 10734.74
CYP1A1 (1A1) mRNA, fold to C ([1]; donor Hep200529, normalised to GAPDH): 394.35 fold
CYP1A1 (1A1) mRNA, fold to C ([1]; donor Hep200533, normalised to GAPDH): 1246.21 fold
CYP1A1 (1A1) mRNA, fold to C ([1]; donor Hep220932, normalised to GAPDH): 962.07 fold
1A1 mRNA fold to C ([2]; HepaRG AHR-KO): 1.24 fold
1A1 mRNA fold to C ([2]; HepaRG CONTROL 5F Clone): 151.69 fold
CYP1A1 (1A1) mRNA, fold to C ([2]; HepaRG PXR-KO cells, qRT-PCR normalised to GAPDH, fold vs untreated (UT)): 338.18 fold
CYP1A1 mRNA induction ([2]; HepaRG control 5F clone, PXR-KO, AhR-KO): induces
CYP1A1 mRNA fold to C ([3]; PXR-transfected LS180 cells): 1299.13
CYP1A1 mRNA fold to C ([3]; mock-transfected LS180 cells): 2347.10
fold induction at 24 h [4]: 485

CO[C@H]1/C=C/O[C@@]2(C)Oc3c(C)c(O)c4c(O)c(c(/C=N/N5CCN(C)CC5)c(O)c4c3C2=O)NC(=O)/C(C)=C\C=C\[C@H](C)[C@H](O)[C@@H](C)[C@@H](O)[C@@H](C)[C@H](OC(C)=O)[C@@H]1C [Rifampicin, reference compound]
NFkB %max [5]: 94.8% and 94.84%

O=C(O)CCc1c[nH]c2ccccc12 [IPA, indole‐3‐propionic acid, reference compound]
thermal signature of interaction with hPXR-LBD [6]: did not induce a thermal signature
